Tests used:
[1] = molecular target: human KEAP1 (N-term, residues 321-609) (Homo sapiens, UniProt Q14145); assay: biochemical;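 also: fluorescence polarization competition assay of Kelch domain binding to NRF2, 12-point 1:3 dilution series from 10 µM, read after 1 h at room temperature, floor 10 nM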
[2] = system: NQO1 mRNA in BEAS-2B cells; assay: Beas2B NQO1 mRNA cell based assay; set-up: species or system human; settings: Homo sapiens, BEAS-2B, 24 h, 24 h compound treatment, increase in NQO1 mRNA vs vehicle (0.1% DMSO), read-out: EC50
Outline: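 BEAS-2B human bronchial epithelial cells exposed to compound for 24 h at 37 °C, 5% CO2. NQO1 mRNA measured by one-step TaqMan RT-qPCR on unpurified lysates, normalized to β-actin; relative expression by ΔΔCT method.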

Sequence of human KEAP1 (N-term, residues 321-609) (Q14145 321-609): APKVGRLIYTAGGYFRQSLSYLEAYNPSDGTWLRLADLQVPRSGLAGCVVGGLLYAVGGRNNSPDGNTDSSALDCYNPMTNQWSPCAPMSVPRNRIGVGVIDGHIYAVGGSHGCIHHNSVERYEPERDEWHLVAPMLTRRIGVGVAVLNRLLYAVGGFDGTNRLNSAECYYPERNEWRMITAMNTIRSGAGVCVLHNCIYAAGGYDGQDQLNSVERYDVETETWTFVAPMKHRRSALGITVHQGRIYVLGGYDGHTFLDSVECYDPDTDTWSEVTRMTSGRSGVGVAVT

| Structure (SMILES) | IC50 [1] [nM] | EC50 [2] [nM] |
| --- | --- | --- |
| C[C@@H]1CC(=O)N(C[C@@H]2c3c(OCc4nnn(C)c4C(F)F)ccc(Cl)c3CCN2C(=O)[C@@H]2CCC[C@]2(C)C(=O)O)C1 [Example 109, (1S,2R)-2-((S)-5-Chloro-8-((5-(difluoromethyl)-1-methyl-1H-1,2,3-triazol-4-yl)methoxy)-1-(((R)-4-methyl-2-oxopyrrolidin-1-yl)methyl)-1,2,3,4-tetrahydroisoquinoline-2-carbonyl)-1-methylcyclopentane-1-carboxylic acid] | 9.7 | 7.4 |
| C[C@@H]1CCN(C[C@@H]2c3c(OCc4nnn(C)c4C(F)F)ccc(Cl)c3CCN2C(=O)[C@@H]2CCCC[C@]2(C)C(=O)O)C1=O [Example 112, (1S,2R)-2-((S)-5-Chloro-8-((5-(difluoromethyl)-1-methyl-1H-1,2,3-triazol-4-yl)methoxy)-1-(((R)-3-methyl-2-oxopyrrolidin-1-yl)methyl)-1,2,3,4-tetrahydroisoquinoline-2-carbonyl)-1-methylcyclohexane-1-carboxylic acid] | 9.4 | 280 |
| C[C@@H]1CCN(C[C@@H]2c3c(OCc4nnn(C)c4C(F)F)ccc(Cl)c3CCN2C(=O)[C@@H]2CCC[C@]2(C)C(=O)O)C1=O [Example 113, (1S,2R)-2-((1S)-5-Chloro-8-((5-(difluoromethyl)-1-methyl-1H-1,2,3-triazol-4-yl)methoxy)-1-(((R)-3-methyl-2-oxopyrrolidin-1-yl)methyl)-1,2,3,4-tetrahydroisoquinoline-2-carbonyl)-1-methylcyclopentane-1-carboxylic acid] | 10 | 240 |
| C[C@H]1CCN(C[C@@H]2c3c(OCc4nnn(C)c4C(F)F)ccc(Cl)c3CCN2C(=O)[C@@H]2CCCC[C@]2(C)C(=O)O)C1=O [Example 115, (1S,2R)-2-((1S)-5-Chloro-8-((5-(difluoromethyl)-1-methyl-1H-1,2,3-triazol-4-yl)methoxy)-1-(((S)-3-methyl-2-oxopyrrolidin-1-yl)methyl)-1,2,3,4-tetrahydroisoquinoline-2-carbonyl)-1-methylcyclohexane-1-carboxylic acid] | 9.7 | 4.2 |

Now those with a lower IC50 [1], led by results:

| IC50 [1] [nM] | Structure (SMILES) | EC50 [2] [nM] |
| --- | --- | --- |
| 6.3 | Cn1nnc(COc2ccc(Cl)c3c2[C@@H](CN2CC4(CC4)CC2=O)N(C(=O)[C@@H]2CCC[C@]2(C)C(=O)O)CC3)c1C(F)F [Example 110, (1S,2R)-2-((S)-5-Chloro-8-((5-(difluoromethyl)-1-methyl-1H-1,2,3-triazol-4-yl)methoxy)-1-((6-oxo-5-azaspiro[2.4]heptan-5-yl)methyl)-1,2,3,4-tetrahydroisoquinoline-2-carbonyl)-1-methylcyclopentane-1-carboxylic acid] | 1.3 |
| 6.1 | C[C@@H]1CC(=O)N(C[C@@H]2c3c(OCc4nnn(C)c4C(F)F)ccc(Cl)c3CCN2C(=O)[C@@H]2CCCC[C@]2(C)C(=O)O)C1 [Example 111, (1S)-2-((S)-5-Chloro-8-((5-(difluoromethyl)-1-methyl-1H-1,2,3-triazol-4-yl)methoxy)-1-1-(((R)-4-methyl-2-oxopyrrolidin-1-yl)methyl)-1,2,3,4-tetrahydroisoquinoline-2-carbonyl)-1-methylcyclohexane-1-carboxylic acid] | 2.5 |
| 7.4 | C[C@H]1CCN(C[C@@H]2c3c(OCc4nnn(C)c4C(F)F)ccc(Cl)c3CCN2C(=O)[C@@H]2CCC[C@]2(C)C(=O)O)C1=O [Example 114, (1S,2R)-2-((1S)-5-Chloro-8-((5-(difluoromethyl)-1-methyl-1H-1,2,3-triazol-4-yl)methoxy)-1-(((S)-3-methyl-2-oxopyrrolidin-1-yl)methyl)-1,2,3,4-tetrahydroisoquinoline-2-carbonyl)-1-methylcyclopentane-1-carboxylic acid] | 16 |
